Reference: ChEMBL document CHEMBL1909599, “Synthesis and anti-HIV-1 activity of 4-substituted-7-(2'-deoxy-2'-fluoro-4'-azido-β-D-ribofuranosyl)pyrrolo[2,3-d]pyrimidine analogues” (Bioorg Med Chem Lett, 2011)

system: Human immunodeficiency virus 1; assay: Antiviral activity against Human immunodeficiency virus 1 assessed as inhibition of viral replication by MTT assay; type: functional, organism-based

Structure (SMILES)	EC50 [µM]
Cc1cn([C@H]2C[C@H](N=[N+]=[N-])[C@@H](CO)O2)c(=O)[nH]c1=O [ZIDOVUDINE]	0.084
[N-]=[N+]=N[C@]1(CO)O[C@@H](n2ccc3c(O)ncnc32)[C@@H](F)[C@@H]1O	13
[N-]=[N+]=N[C@]1(CO)O[C@@H](n2cc(F)c3c(N)ncnc32)[C@@H](F)[C@@H]1O	5.4
[N-]=[N+]=N[C@]1(CO)O[C@@H](n2ccc3c(N)ncnc32)[C@@H](F)[C@@H]1O	0.5
